*1 amine or outer side, *2 acyl side, *3 side chain or, on linkers, in order; H or OH if unused. Where a SMILES comes first, the peptide text is derived from it. [ ]: non-standard residue; d: D form. The star is where a group is joined. X1 = C[C@H](COC(=O)N(C)c1ccccn1)C[C@@H](C(=O)[*:2])N(C)[*:1]; X2 = COCCN(CCOC)C(=O)OC[C@@H](C)C[C@@H](C(=O)[*:2])N(C)[*:1]; X4 = C[C@H](COC(=O)N(C)c1cccnc1)C[C@@H](C(=O)[*:2])N(C)[*:1]; X3 = C[C@H](COC(=O)N1CCN(C)CC1)C[C@@H](C(=O)[*:2])N(C)[*:1]; X6 = C[C@H](COC(=O)N1CCOCC1)C[C@@H](C(=O)[*:2])N(C)[*:1]; NMe(dihydroBmt) = CCCC[C@@H](C)[C@@H](O)[C@H](NC)C(=O)O; X7 = C[C@H](COC(=O)[*:3])C[C@@H](C(=O)[*:2])N(C)[*:1]; MeBmt = C/C=C/C[C@@H](C)[C@@H](O)[C@H](NC)C(=O)O; NMeL = CN[C@@H](CC(C)C)C(=O)O; X8 = CN(c1cnn(CCN2CCOCC2)c1)*; NMeV = CN[C@H](C(=O)O)C(C)C; Sar = CNCC(=O)O
Target: HCV replicon
Type: cell-based, hepatitis C virus
Conditions: HCV replicon cells, D-MEM with 5% fetal bovine serum, luciferase activity after two more days of cultivation, 50% enzyme activity level to control (DMSO only)
Procedure: It is thought that the replication mechanism of the subgenomic HCV RNA in these cell lines is extremely similar to the replication of full length HCV RNA genome in hepatic cells infected with HCV.
The inhibitory activity of the test compounds against the replication of HCV replicon was evaluated by quantifying the activity of luciferase, a reporter gene product encoded in the replicon system reported by Yokota et al., EMBO J 4: 602-608 (2003). The enzyme assay was carried out according to the technical manual of the Steady-Glo(trade mark) luciferase assay system (Promega). The replicon assay was carried out with the modified method reported by Lohmann et al., Science 285: 110 (1999). The details are described in the following.
6×10^3 HCV replicon cells in D-MEM medium containing 5% fetal bovine serum were seeded in each well of a 96-well microtiter plate (Corning Inc.). After the cells were incubated at 37° C. for 16 hours in 5% CO2, the test compound was added.
After cultivation for two more days, the culture medium was removed and 25 μl of Glo Lysis buffer was added to each well and incubated for 5 minutes. Allowing lysis to occur, 25 μl of Steady-Glo(trade mark) assay reagent was added to each well. After incubation for 5 minutes, the luminescence was measured with a luminometer, Mithras LB940 (BERTHOLD TECHNOLOGIES GmbH & Co.KG) following the manufacturer's instructions.
The luciferase activities in replicon cells treated at each concentrations of the compound were employed for the calculation of EC50 value of the each compound, which gave the compound concentration indicating 50% enzyme activity level to the control (no drug group, containing only DMSO).

Compound	HCV replicon replication inhibitory activity: EC50 [µg/mL]
C/C=C/C[C@@H](C)[C@@H](O)[C@H]1C(=O)N[C@@H]([C@@H](C)O)C(=O)N(C)CC(=O)N(C)[C@@H](CC(C)C)C(=O)N[C@@H](CC(C)C)C(=O)N(C)[C@@H](CC(C)C)C(=O)N[C@@H](C)C(=O)N[C@H](C)C(=O)N(C)[C@@H](C[C@H](C)COC(=O)N(C)c2cccnc2)C(=O)N[C@@H](CC(C)C)C(=O)N(C)[C@@H](C(C)C)C(=O)N1C [Ex 39] (cyclo([MeBmt]T[Sar][NMeL]L[NMeL]A[dA][X4]L[NMeV]))	0.12
C/C=C/C[C@@H](C)[C@@H](O)[C@H]1C(=O)N[C@@H]([C@@H](C)O)C(=O)N(C)CC(=O)N(C)[C@@H](CC(C)C)C(=O)N[C@@H](CC(C)C)C(=O)N(C)[C@@H](CC(C)C)C(=O)N[C@@H](C)C(=O)N[C@H](C)C(=O)N(C)[C@@H](C[C@H](C)COC(=O)N2CCN(C)CC2)C(=O)N[C@@H](CC(C)C)C(=O)N(C)[C@@H](C(C)C)C(=O)N1C [Ex 8] (cyclo([MeBmt]T[Sar][NMeL]L[NMeL]A[dA][X3]L[NMeV]))	0.16
C/C=C/C[C@@H](C)[C@@H](O)[C@H]1C(=O)N[C@@H]([C@@H](C)O)C(=O)N(C)[C@H](COC)C(=O)N(C)[C@@H](CC(C)C)C(=O)N[C@@H](CC(C)C)C(=O)N(C)[C@@H](CC(C)C)C(=O)N[C@@H](C)C(=O)N[C@H](C)C(=O)N(C)[C@@H](C[C@H](C)COC(=O)N2CC[C@H](OC)C2)C(=O)N[C@@H](CC(C)C)C(=O)N(C)[C@@H](C(C)C)C(=O)N1C [Ex 151]	0.035
CCCC[C@@H](C)[C@@H](O)[C@H]1C(=O)N[C@@H]([C@@H](C)O)C(=O)N(C)CC(=O)N(C)[C@@H](CC(C)C)C(=O)N[C@@H](CC(C)C)C(=O)N(C)[C@@H](CC(C)C)C(=O)N[C@@H](C)C(=O)N[C@H](C)C(=O)N(C)[C@@H](C[C@H](C)COC(=O)N(C)c2ccccn2)C(=O)N[C@@H](CC(C)C)C(=O)N(C)[C@@H](C(C)C)C(=O)N1C [Ex 249] (cyclo([NMe(dihydroBmt)]T[Sar][NMeL]L[NMeL]A[dA][X1]L[NMeV]))	0.07
C/C=C/C[C@@H](C)[C@@H](O)[C@H]1C(=O)N[C@@H]([C@@H](C)O)C(=O)N(C)[C@H](C)C(=O)N(C)[C@@H](CC(C)C)C(=O)N[C@@H](CC(C)C)C(=O)N(C)[C@@H](CC(C)C)C(=O)N[C@@H](C)C(=O)N[C@H](C)C(=O)N(C)[C@@H](C[C@H](C)COC(=O)N2CCC(C)(OCC)CC2)C(=O)N[C@@H](CC(C)C)C(=O)N(C)[C@@H](C(C)C)C(=O)N1C [Ex 124]	0.056
C/C=C/C[C@@H](C)[C@@H](O)[C@H]1C(=O)N[C@@H]([C@@H](C)O)C(=O)N(C)[C@H](COC)C(=O)N(C)[C@@H](CC(C)C)C(=O)N[C@@H](CC(C)C)C(=O)N(C)[C@@H](CC(C)C)C(=O)N[C@@H](C)C(=O)N[C@H](C)C(=O)N(C)[C@@H](C[C@H](C)COC(=O)N(C)CCOC)C(=O)N[C@@H](CC(C)C)C(=O)N(C)[C@@H](C(C)C)C(=O)N1C [Ex 84]	0.053
C/C=C/C[C@@H](C)[C@@H](O)[C@H]1C(=O)N[C@@H]([C@@H](C)O)C(=O)N(C)[C@H](C)C(=O)N(C)[C@@H](CC(C)C)C(=O)N[C@@H](CC(C)C)C(=O)N(C)[C@@H](CC(C)C)C(=O)N[C@@H](C)C(=O)N[C@H](C)C(=O)N(C)[C@@H](C[C@H](C)COC(=O)N(C)CC(F)(F)F)C(=O)N[C@@H](CC(C)C)C(=O)N(C)[C@@H](C(C)C)C(=O)N1C [Ex 145]	0.022
C/C=C/C[C@@H](C)[C@@H](O)[C@H]1C(=O)N[C@@H]([C@@H](C)O)C(=O)N(C)[C@H](C)C(=O)N(C)[C@@H](CC(C)C)C(=O)N[C@@H](CC(C)C)C(=O)N(C)[C@@H](CC(C)C)C(=O)N[C@@H](C)C(=O)N[C@H](C)C(=O)N(C)[C@@H](C[C@H](C)COC(=O)N2CCSCC2)C(=O)N[C@@H](CC(C)C)C(=O)N(C)[C@@H](C(C)C)C(=O)N1C [Ex 130]	0.031
C/C=C/C[C@@H](C)[C@@H](O)[C@H]1C(=O)N[C@@H]([C@@H](C)O)C(=O)N(C)CC(=O)N(C)[C@@H](CC(C)C)C(=O)N[C@@H](CC(C)C)C(=O)N(C)[C@@H](CC(C)C)C(=O)N[C@@H](C)C(=O)N[C@H](C)C(=O)N(C)[C@@H](C[C@H](C)COC(=O)N2CCOCC2)C(=O)N[C@@H](CC(C)C)C(=O)N(C)[C@@H](C(C)C)C(=O)N1C [Ex 1] (cyclo([MeBmt]T[Sar][NMeL]L[NMeL]A[dA][X6]L[NMeV]))	0.15
C/C=C/C[C@@H](C)[C@@H](O)[C@H]1C(=O)N[C@@H]([C@@H](C)O)C(=O)N(C)CC(=O)N(C)[C@@H](CC(C)C)C(=O)N[C@@H](CC(C)C)C(=O)N(C)[C@@H](CC(C)C)C(=O)N[C@@H](C)C(=O)N[C@H](C)C(=O)N(C)[C@@H](C[C@H](C)COC(=O)N(C)c2cnn(CCN3CCOCC3)c2)C(=O)N[C@@H](CC(C)C)C(=O)N(C)[C@@H](C(C)C)C(=O)N1C [Ex 36] (cyclo([MeBmt]T[Sar][NMeL]L[NMeL]A[dA][X7](X8)L[NMeV]))	0.09
C/C=C/C[C@@H](C)[C@@H](O)[C@H]1C(=O)N[C@@H]([C@@H](C)O)C(=O)N(C)CC(=O)N(C)[C@@H](CC(C)C)C(=O)N[C@@H](CC(C)C)C(=O)N(C)[C@@H](CC(C)C)C(=O)N[C@@H](C)C(=O)N[C@H](C)C(=O)N(C)[C@@H](C[C@H](C)COC(=O)N(CCOC)CCOC)C(=O)N[C@@H](CC(C)C)C(=O)N(C)[C@@H](C(C)C)C(=O)N1C [Ex 10] (cyclo([MeBmt]T[Sar][NMeL]L[NMeL]A[dA][X2]L[NMeV]))	0.18

Reference: patent US8603975B2, “Cyclic peptide compounds” (priority 2007, dated 2013)
